The values below come from ChEMBL document CHEMBL1151439, “Bactericidal action of daptomycin against stationary-phase and nondividing Staphylococcus aureus cells” (2007).

Experiment [1] deals with Staphylococcus aureus. Briefly: Antibacterial activity against exponential growth culture of methicillin-sensitive Staphylococcus aureus ATCC 29213 grown for 2 hrs in MHBc by broth microdilution method. It counts as functional.
The test system of experiment [2] is Staphylococcus aureus. Briefly: Bactericidal activity against 1 hr cold-arrested exponential growth culture of methicillin-sensitive Staphylococcus aureus ATCC 29213 grown for 2 hrs in MHBc at 2 ug/mL incubated at 0 degC by time kill study. In kind it is functional, organism-based.
For experiment [3], the system named is Staphylococcus aureus. The experiment is described as follows: Bactericidal activity against 24 hrs cold-arrested exponential growth culture of methicillin-sensitive Staphylococcus aureus ATCC 29213 grown for 2 hrs in MHBc at 2 ug/mL incubated at 37 degC after 2 hrs by time kill study. In kind it is functional, organism-based.
The test system of experiment [4] is Staphylococcus aureus. Briefly: Bactericidal activity against high inoculum density stationary phase culture of methicillin-sensitive Staphylococcus aureus ATCC 29213 grown for >17 hrs in MHBc at 100 ug/mL after 24 hrs by time kill study. In kind it is functional, organism-based.
Experiment [5] relates to Staphylococcus aureus. The experiment is described as follows: Bactericidal activity against high inoculum density stationary phase culture of methicillin-sensitive Staphylococcus aureus ATCC 29213 grown for >17 hrs in MHBc assessed as effect on viability at 100 ug/mL after 4 hrs by time kill study. It counts as functional, organism-based.
For experiment [6], the system named is Staphylococcus aureus. Briefly: Bactericidal activity against stationary phase culture of methicillin-sensitive Staphylococcus aureus ATCC 29213 grown for 17 hrs in MHBc at 32 ug/ml after 24 hrs by time kill study. In kind it is functional, organism-based.
The subject of experiment [7] is Staphylococcus aureus. The experiment is described as follows: Bactericidal activity against stationary phase culture of methicillin-sensitive Staphylococcus aureus ATCC 29213 grown for >17 hrs in MHBc followed by dilution in nutrient depleted MHBc assessed as logarithmic reduction in CFU per millimiter at 10 ug/mL after 24 hrs by time kill study. In kind it is functional.

Experiment [8] has as its system Staphylococcus aureus. Briefly: Bactericidal activity against CCCP-induced metabolically arrested exponential growth culture of methicillin-sensitive Staphylococcus aureus ATCC 29213 grown for 2 hrs in MHBc at 10 ug/mL after 24 hrs by time kill study. It counts as functional, organism-based.
In experiment [9] the test system is Staphylococcus aureus. Briefly: Bactericidal activity against high inoculum density stationary phase culture of methicillin-sensitive Staphylococcus aureus ATCC 29213 grown for >17 hrs in MHBc by time kill study. It counts as functional, organism-based.
The subject of experiment [10] is Staphylococcus aureus. Briefly: Bactericidal activity against high inoculum density stationary phase culture of methicillin-sensitive Staphylococcus aureus ATCC 29213 grown for >17 hrs in MHBc at 10 ug/mL after 24 hrs by time kill study. In kind it is functional, organism-based.
In experiment [11] the test system is Staphylococcus aureus. Briefly: Bactericidal activity against high inoculum density exponential growth culture of methicillin-sensitive Staphylococcus aureus ATCC 29213 grown for 2 hrs in MHBc assessed as log reduction in cell density at 100 ug/mL after 1 hr by time kill study. It counts as functional, organism-based.
The test system of experiment [12] is Staphylococcus aureus. Briefly: Bactericidal activity against erythromycin-induced metabolically arrested exponential growth culture of methicillin-sensitive Staphylococcus aureus ATCC 29213 grown for 2 hrs in MHBc at 10 ug/mL after 24 hrs by time kill study. It counts as functional, organism-based.
Experiment [13] relates to Staphylococcus aureus. Briefly: Bactericidal activity against high inoculum density stationary phase culture of methicillin-sensitive Staphylococcus aureus ATCC 29213 grown for >17 hrs in MHBc at 100 ug/mL after prolonged treatment period by time kill study. It counts as functional, organism-based.
For experiment [14], the system named is Staphylococcus aureus. The experiment is described as follows: Bactericidal activity against stationary phase culture of methicillin-sensitive Staphylococcus aureus ATCC 29213 grown for >17 hrs in MHBc followed by dilution in nutrient depleted MHBc assessed as logarithmic reduction in CFU per millimiter at 100 ug/mL after 24 hrs by time kill study. In kind it is functional, organism-based.

Experiment [15] concerns Staphylococcus aureus. Briefly: Bactericidal activity against high inoculum density exponential growth culture of methicillin-sensitive Staphylococcus aureus ATCC 29213 grown for 2 hrs in MHBc at 10 ug/mL after 24 hrs by time kill study. In kind it is functional, organism-based.
Experiment [16] deals with Staphylococcus aureus. The experiment is described as follows: Bactericidal activity against exponential growth culture of methicillin-sensitive Staphylococcus aureus ATCC 29213 grown for 2 hrs in MHBc assessed as logarithmic reduction in CFU at 2 ug/ml within 60 mins by time kill study. In kind it is functional.
Experiment [17] has as its system Staphylococcus aureus. Briefly: Bactericidal activity against high inoculum density stationary phase culture of methicillin-sensitive Staphylococcus aureus ATCC 29213 grown for >17 hrs in MHBc assessed as log reduction in CFU per millimiter at 100 ug/mL after 8 hrs by time kill study. In kind it is functional.

≈ marks a conversion by molar mass, not a printed value. Calls of active or inactive are those of the source. The calls are words filed in the database; no cut-off is given here. A value given as a limit tells only on which side of the number the result lay.

Broadly, the MIC is the lowest concentration found to suppress growth. Read a low MIC as inhibition by little substance. For the compound `CCOc1ccc2ccccc2c1C(=O)N[C@@H]1C(=O)N2[C@@H]1SC(C)(C)[C@@H]2C(=O)O` [NAFCILLIN], in the experiment with Staphylococcus aureus [1] (ATCC 29213, 2 h), the lowest concentration to inhibit growth (MIC) was 0.125 µg/mL (≈ 0.302 µM). Besides, the outcome in the experiment on Staphylococcus aureus [2] was inactive. For the same compound, in the experiment with Staphylococcus aureus [3], the outcome was Active.

Consider `CN[C@H](CC(C)C)C(=O)N[C@H]1C(=O)N[C@@H](CC(N)=O)C(=O)N[C@H]2C(=O)N[C@H]3C(=O)N[C@H](C(=O)N[C@H](C(=O)O)c4cc(O)cc(O)c4-c4cc3ccc4O)[C@H](O)c3ccc(c(Cl)c3)Oc3cc2cc(c3O[C@@H]2O[C@H](CO)[C@@H](O)[C@H](O)[C@H]2O[C@H]2C[C@](C)(N)[C@H](O)[C@H](C)O2)Oc2ccc(cc2Cl)[C@H]1O`, for which the result in the experiment on Staphylococcus aureus [4] and in the experiment on Staphylococcus aureus [5] was inactive.

For GENTAMICIN, the MIC with Staphylococcus aureus [1] came to 0.25 µg/mL. Also, in the experiment with Staphylococcus aureus [4], the result was Active.

The compound `CCCCCCCCCC(=O)N[C@@H](Cc1c[nH]c2ccccc12)C(=O)N[C@H](CC(N)=O)C(=O)N[C@@H](CC(=O)O)C(=O)N[C@@H]1C(=O)NCC(=O)N[C@@H](CCCN)C(=O)N[C@@H](CC(=O)O)C(=O)N[C@H](C)C(=O)N[C@@H](CC(=O)O)C(=O)NCC(=O)N[C@H](CO)C(=O)N[C@@H]([C@H](C)CC(=O)O)C(=O)N[C@@H](CC(=O)c2ccccc2N)C(=O)O[C@@H]1C` had a minimal inhibitory concentration (MIC) against Staphylococcus aureus [1] (ATCC 29213, 2 h) of 0.5 µg/mL (≈ 0.309 µM). Also, the outcome in the experiment with Staphylococcus aureus [6], in the experiment with Staphylococcus aureus [8], in the experiment on Staphylococcus aureus [2], in the experiment on Staphylococcus aureus [11], with Staphylococcus aureus [12] and in the experiment with Staphylococcus aureus [13] was Active. The outcome in the experiment on Staphylococcus aureus [3], in the experiment with Staphylococcus aureus [14] and in the experiment on Staphylococcus aureus [15] was Active. Also, the Activity is greater than 1 in the experiment on Staphylococcus aureus [7], “Dose-dependent effect” in the experiment with Staphylococcus aureus [9], 3 in the experiment with Staphylococcus aureus [16] and 3 in the experiment on Staphylococcus aureus [17]. Moreover, the result with Staphylococcus aureus [10] was inactive.

Compound `O=C(O)c1cn(C2CC2)c2cc(N3CCNCC3)c(F)cc2c1=O` [CIPROFLOXACIN] had a minimal inhibitory concentration (MIC) in the experiment on Staphylococcus aureus [1] (ATCC 29213, 2 h) of 0.5 µg/mL (≈ 1.51 µM). The outcome in the experiment with Staphylococcus aureus [8], in the experiment with Staphylococcus aureus [2] and in the experiment with Staphylococcus aureus [12] was inactive. The result in the experiment with Staphylococcus aureus [3] and in the experiment with Staphylococcus aureus [15] was Active.
